Read-outs that look alike come from different tables or passages of the source.
Columns and labels:
[1] = in clinical studies; cited from earlier work
[2] = test system: gout patients with hyperuricemia; format: in vivo; settings: for Mean absolute sUA reduction / Mean sUA % change / Mean sUA level: ± SE; for % Response rate for sUA falling below 4 mg/dL / % Response rate for sUA falling below 5 mg/dL / % Response rate for sUA falling below 6 mg/dL: allopurinol 300 mg
Description: Study Objectives • To measure the effect of drug 1, alone and in combination with allopurinol, on serum urate concentration. • To evaluate the safety and tolerability of drug 1 in combination with allopurinol.
The study is open-label in gout patients with hyperuricemia, involving 2 panels of ˜10-12 patients per panel. The panels may be enrolled simultaneously.
Panel 1 receives a once-daily dose of allopurinol 300 mg alone for 7 days and for an additional 7 days in combination with a once-daily dose of drug 1 400 mg. Patients then receive 7 days of a once-daily dose of drug 1 400 mg alone. Panel 2 follows the same regimen as panel 1, at doses of allopurinol 300 mg and drug 1 600 mg.
• Day −10 to Day 28: colchicine prophylaxis; or • Day −7 to Day 28: colchicine prophylaxis (for patients not washing out from ULT) • Days 1-7: allopurinol 300 mg qd • Days 8-14: drug 1 400 mg qd+allopurinol 300 mg qd • Days 15-21: drug 1 400 mg qd
• Day −10 to Day 28: colchicine prophylaxis; or • Day −7 to Day 28: colchicine prophylaxis (for patients not washing out from ULT) • Days 1-7: allopurinol 300 mg qd • Days 8-14: drug 1 600 mg qd+allopurinol 300 mg qd • Days 15-21: drug 1 600 mg qd
Gout patients on a urate lowering therapy (ULT), have previously taken a ULT or who have never taken a ULT are eligible to participate. Screening procedures to determine patient eligibility are performed within approximately 14 days of the first dose of study drug (Day 1). Subjects currently on ULT wash-out for at least 10 days before Day 1, and begin colchicine (Colcry® 0.6 mg qd, URL Pharma) as prophylaxis for gout flares at the beginning of the wash-out period. Subjects not on ULT begin colchicine administration at least 7 days prior to Day 1. Patients intolerant of colchicine during the screening period are considered screen failures and not enrolled. Prophylactic administration of colchicine continues for 7 days after the last dose of study medication.
Eligible patients report to the study center early morning on Days −1, 7, 14, and 21 (or the afternoon/evening the day before). Serial blood samples are collected on Days −1, 7, 14, and 21. Study medication is administered to each patient and taken orally every morning with approximately 240 mL of water, at approximately the same time of the morning every day, and approximately 30 minutes after finishing a full breakfast (approximately 650 Kcal and 35% fat); the breakfast is standardized on Days −1 to 21.
Inclusion Criteria • Patient is male or post-menopausal or surgically sterile female. • Patient is 18-80 years of age. • Patient meets one or more criteria for the diagnosis of gout as per the American Rheumatism Association (ARA) Criteria for the Classification of Acute Arthritis of Primary Gout (Appendix B). • Patient sUA≥8 mg/dL at screening. • Patient willing and able to give informed consent and adhere to visit/protocol schedules • No clinically relevant abnormalities in blood pressure (BP), heart rate (HR), body temperature and respiratory rate as per Investigator's judgment.
Subject urate serum levels are recorded, and any safety concerns assessed (by adverse events, clinical laboratory test results, vital signs, 12-lead ECGs, and physical examinations). […] Urate serum concentrations are evaluated for treatment- and/or time-dependent changes relative to baseline (Day −1), and may be expressed both in standard units (mg/dL) and as changes from baseline (e.g., percent change, absolute change, maximal change, and time or day of maximal change).
Drug 1 was tested according to the protocol described in Example 21.
Serum urate levels were measured and absolute and % reduction levels from baseline calculated, for Allopurinol monotherapy, Drug 1 monotherapy and Allopurinol plus Drug 1 combination.

PNP = target: T1, PNP (Homo sapiens, UniProt P00491); settings: cited from earlier work
T1 sequence (P00491 1-289): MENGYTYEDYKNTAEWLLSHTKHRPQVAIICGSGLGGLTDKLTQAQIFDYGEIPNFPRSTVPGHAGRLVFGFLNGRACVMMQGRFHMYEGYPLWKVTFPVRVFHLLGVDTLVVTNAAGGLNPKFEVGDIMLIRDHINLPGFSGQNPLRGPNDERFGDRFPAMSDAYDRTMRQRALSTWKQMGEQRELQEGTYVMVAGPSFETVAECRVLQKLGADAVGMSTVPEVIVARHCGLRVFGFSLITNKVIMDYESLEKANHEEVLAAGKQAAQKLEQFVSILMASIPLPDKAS

[3] = Drug 1 400 mg panel: allopurinol 300 mg qd days 1-7, combination days 8-14, drug 1 400 mg qd alone days 15-21
[4] = Drug 1 600 mg panel: allopurinol 300 mg qd days 1-7, combination days 8-14, drug 1 600 mg qd alone days 15-21

Structure (SMILES): O=C(O)CSc1nnc(Br)n1-c1ccc(C2CC2)c2ccccc12 [Drug 1, Sodium 2-(5-bromo-4-(4-cyclopropylnaphthalen-1-yl)-4H-1,2,4-triazol-3-ylthio)acetate]
- Route of excretion [1]: preferentially excreted through the kidney, reaching high concentrations in urine
- Mean absolute sUA reduction [2, 3]: -3.0 ± 0.46 mg/dL
- Mean sUA % change [2, 3]: −30.2 ± 3.7%
- Mean sUA level [2, 3]: 6.6 ± 0.22 mg/dL
- % Response rate for sUA falling below 4 mg/dL ([2]; Drug 1 400 mg panel): 0%
- % Response rate for sUA falling below 5 mg/dL ([2]; Drug 1 400 mg panel): 0%
- % Response rate for sUA falling below 6 mg/dL ([2]; Drug 1 400 mg panel): 20%
- Mean absolute sUA reduction [2, 4]: -3.3 ± 0.23 mg/dL
- Mean sUA % change [2, 4]: −37.2 ± 2.6%
- Mean sUA level [2, 4]: 5.7 ± 0.41 mg/dL
- % Response rate for sUA falling below 4 mg/dL ([2]; Drug 1 600 mg panel): 0%
- % Response rate for sUA falling below 5 mg/dL ([2]; Drug 1 600 mg panel): 33%
- % Response rate for sUA falling below 6 mg/dL ([2]; Drug 1 600 mg panel): 67%
- Inhibition of PNP (PNP): does not significantly inhibit

— US20180161314A1, “Methods for Treating Hyperuricemia and Related Diseases” (Ardea Biosciences, Inc., priority 2010, published 2018)
